{"source": "patent US9808470B2", "about": "“Estrogenic components for use in the treatment of neurological disorders” (UNIVERSITE DE LIEGE, priority 2012, dated 2017)", "type_in_all_cases": "in vivo", "key": {"[1]": {"assay": "Ex.3 neuroprotective HIE rat model: rectal temperature", "settings": "E4 1, 5, 10, 50 mg/kg/day ip PND4-7 before HI; 0, 2, 4 h after hypoxia", "description": "(§1) The rectal temperature of the rat pups was measured with a multipurpose thermometer (BAT-10R, Physitemp Instruments Inc., Clifton, N.J., US) along with a rectal probe (RET-4, BioMedical Instruments, Zollnitz, Germany) at 0, 2, and 4 hours after exposure to hypoxic insult. To keep the variability of the temperature low, measurements of rectal temperature were made in a 25° C. room 15 min after removal of the pups from the nest (except the 1st post-hypoxic measurement which was done immediately). It has been shown that the rectal temperature corresponds very well to the brain core temperature (Thoresen et al. 1996. Arch Dis Child Fetal Neonatal 74: F3-F9, Yager et al. 1993. Pediatr Res 34: 525-529).\nNewborn rat pups were assigned to one of the following 6 groups from postnatal day 4: Sham group (n=24), Vehicle group (n=14), E4 1 mg/kg/per day group (n=11), E4 5 mg/kg/per day group (n=14), E4 10 mg/kg/per day group (n=14), or E4 50 mg/kg/per day group (n=19). From postnatal day 4, rat pups were intraperitoneally injected either vehicle (Vehicle group) or E4 (1, 5, 10, or 50 mg/kg/per day in accordance to the E4 group assignment) or neither vehicle nor E4 (Sham group). […]"}, "[2]": {"system": "S100B", "assay": "Ex.3 neuroprotective HIE rat model: blood serum S100B ELISA", "settings": "PND14", "description": "Blood was withdrawn, centrifuged and the serum samples were stored at −80° C.\nELISAs for detecting the brain damage markers S100B protein (Catalog# CSB-E08066r, Cusabio Biotech Co., LTD, China), and glial fibrillary acidic protein (GFAP) (Catalog# E90068Ra, Uscn Life sciences Inc., China) in blood serum samples were performed according to the manufacturers' recommendations.\nNewborn rat pups were assigned to one of the following 6 groups from postnatal day 4: Sham group (n=24), Vehicle group (n=14), E4 1 mg/kg/per day group (n=11), E4 5 mg/kg/per day group (n=14), E4 10 mg/kg/per day group (n=14), or E4 50 mg/kg/per day group (n=19). From postnatal day 4, rat pups were intraperitoneally injected either vehicle (Vehicle group) or E4 (1, 5, 10, or 50 mg/kg/per day in accordance to the E4 group assignment) or neither vehicle nor E4 (Sham group). At day 7, 30 minutes after last injection, animals were anesthetized with isoflurane (induction, 3.0%; maintenance, 1.5%), and the rat pups from Vehicle and E4 groups passed through surgery encompassing left common carotid artery double ligation and cut. After the procedure, the pups were returned to their dams and were allowed to recover for 1 hour. The pups were then placed in the humidified hypoxic in vivo cabinet (CoyLab, Grass Lake, Mich., USA). […]"}, "[3]": {"assay": "Ex.4 therapeutic HIE rat model: rectal temperature", "settings": "E4 1, 5, 10, 50 mg/kg single ip dose after HI at PND7; 0, 2, 4 h after hypoxia", "description": "as §1\nTo study the therapeutic effect of estetrol, newborn rat pups were assigned to one of the following 6 groups at postnatal day 7: sham group (n=29), vehicle group (n=20), 1 mg/kg E4 group (n=16), 5 mg/kg E4 group (n=19), 10 mg/kg day E4 (n=17) and 50 mg/kg day E4 group (n=15). At postnatal day 7 animals were anesthetized with isoflurane (induction, 3.0%; maintenance, 1.5%), and the rat pups from vehicle and E4 groups passed through surgery encompassing left common carotid artery double ligation and cut. After surgery, the pups were returned to their dams and allowed to recover for 1 hour. The pups were then placed in a humidified hypoxic in vivo cabinet (CoyLab). […]"}}, "data": [{"smiles": "C[C@]12CC[C@@H]3c4ccc(O)cc4CC[C@H]3[C@@H]1[C@@H](O)[C@@H](O)[C@@H]2O", "note": "[E4, 1,3,5(10)-estratrien-3,15α,16α,17β-tetrol]", "values": [{"measurement": "rectal temperature", "setting": "[1]", "result": "did not affect the body temperature"}, {"measurement": "concentration of S100B in blood serum", "setting": "[2]; 10 mg/kg E4 ip PND4-7 before HI, vs sham, 5 mg/kg E4 and 50 mg/kg E4", "result": "significantly higher"}, {"measurement": "concentration of S100B in blood serum", "setting": "[2]; 50 mg/kg E4 ip PND4-7 before HI", "result": "361 ± 32.914", "unit": "pg/mL"}, {"measurement": "rectal temperature", "setting": "[3]", "result": "did not affect the body temperature"}]}]}
